Data taken from PubChem BioAssay AID192 (DTP/NCI, 2004).
Where “and” joins values, the source holds several entries; their conditions need not be identical. Identical values can stand only once. Inconclusive results and toxic doses are left out. How the source made its calls: active means survival T/C of 150% or more; inactive means T/C below 125% in these data.

System: BDF1 mice, B16 melanoma ip, median survival T/C
Experiment: NCI In Vivo Anticancer Drug Screen. Data for tumor model B16 Melanoma (intraperitoneal) in B6D2F1 (BDF1) mice
Settings: endpoint: median survival time, higher = longer survival
Outline: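 Mice with transplantable tumors; drug vs vehicle groups; endpoint survival or tumor size; value = T/C.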

[1] = dose: 50.0 mg/kg/injection, schedule: Q01DX009 (ip), vehicle: Klucel (hydroxypropylcellulose) (HPC)
[2] = dose: 100.0 mg/kg/injection, schedule: Q01DX009 (ip), vehicle: Klucel (hydroxypropylcellulose) (HPC)
[3] = dose: 400.0 mg/kg/injection, schedule: Q01DX009 (ip), vehicle: Klucel (hydroxypropylcellulose) (HPC)
[4] = dose: 3.0 mg/kg/injection, schedule: Q01DX009 (ip), vehicle: saline with Tween-80
[5] = dose: 12.5 mg/kg/injection, schedule: Q01DX009 (ip), vehicle: saline with Tween-80
[6] = dose: 25.0 mg/kg/injection, schedule: Q01DX009 (ip), vehicle: saline with Tween-80
[7] = dose: 200.0 mg/kg/injection, schedule: Q01DX009 (ip), vehicle: Klucel (hydroxypropylcellulose) (HPC)
[8] = dose: 50.0 mg/kg/injection, schedule: Q01DX009 (ip), vehicle: saline with Tween-80
[9] = dose: 25.0 mg/kg/injection, schedule: Q01DX009 (ip), vehicle: Klucel (hydroxypropylcellulose) (HPC)

Measured: T/C

O=C1CN=C(c2ccccc2)c2cc([N+](=O)[O-])ccc2N1
inactive: dose: 0.02 mg/kg/injection, schedule: Q01DX009 (ip), vehicle: Klucel (hydroxypropylcellulose) (HPC) 100 % of control | dose: 0.04 mg/kg/injection, schedule: Q01DX009 (ip), vehicle: Klucel (hydroxypropylcellulose) (HPC) 103 % of control | dose: 0.09 mg/kg/injection, schedule: Q01DX009 (ip), vehicle: Klucel (hydroxypropylcellulose) (HPC) 105 % of control | dose: 0.19 mg/kg/injection, schedule: Q01DX009 (ip), vehicle: Klucel (hydroxypropylcellulose) (HPC) 101 % of control | dose: 0.39 mg/kg/injection, schedule: Q01DX009 (ip), vehicle: Klucel (hydroxypropylcellulose) (HPC) 98 % of control | dose: 3.12 mg/kg/injection, schedule: Q01DX009 (ip), vehicle: Klucel (hydroxypropylcellulose) (HPC) 86 % of control | dose: 12.5 mg/kg/injection, schedule: Q01DX009 (ip), vehicle: Klucel (hydroxypropylcellulose) (HPC) 90 % of control | [1] 99 % of control | [2] 86 % of control | [3] 86 % of control

O=C1NC(Cc2ccc(N(CCCl)CCCl)cc2)C(=O)O1 (stereo not drawn)
inactive: dose: 0.1 mg/kg/injection, schedule: Q01DX009 (ip), vehicle: saline with Tween-80 94 % of control | dose: 0.2 mg/kg/injection, schedule: Q01DX009 (ip), vehicle: saline with Tween-80 102 % of control | dose: 0.4 mg/kg/injection, schedule: Q01DX009 (ip), vehicle: saline with Tween-80 105 % of control
active: [4] 157 % of control | dose: 3.13 mg/kg/injection, schedule: Q01DX009 (ip), vehicle: saline with Tween-80 197 % of control | dose: 6.0 mg/kg/injection, schedule: Q01DX009 (ip), vehicle: saline with Tween-80 203 % of control | [5] 155 % of control

O=c1cc(CCl)[nH]nc1CCl
inactive: dose: 1.5 mg/kg/injection, schedule: Q01DX009 (ip), vehicle: saline with Tween-80 107 % of control | [4] 116 % of control | dose: 3.12 mg/kg/injection, schedule: Q01DX009 (ip), vehicle: saline with Tween-80 123 % of control | [5] 124 % of control

OCCCN1CCCCC1CO (stereo not drawn)
inactive: dose: 12.5 mg/kg/injection, schedule: Q01DX009 (ip), vehicle: saline 101 % of control | dose: 25.0 mg/kg/injection, schedule: Q01DX009 (ip), vehicle: saline 99 % of control | dose: 50.0 mg/kg/injection, schedule: Q01DX009 (ip), vehicle: saline 103 % of control | dose: 100.0 mg/kg/injection, schedule: Q01DX009 (ip), vehicle: saline 90 % of control | dose: 200.0 mg/kg/injection, schedule: Q01DX009 (ip), vehicle: saline 116 % of control | dose: 400.0 mg/kg/injection, schedule: Q01DX009 (ip), vehicle: saline 115 % of control

Cc1ccccc1NC(=S)N(C)C
inactive: dose: 6.25 mg/kg/injection, schedule: Q04DX003 (ip), vehicle: Klucel (hydroxypropylcellulose) (HPC) 96 % of control | dose: 12.5 mg/kg/injection, schedule: Q04DX003 (ip), vehicle: Klucel (hydroxypropylcellulose) (HPC) 100 % of control | dose: 25.0 mg/kg/injection, schedule: Q04DX003 (ip), vehicle: Klucel (hydroxypropylcellulose) (HPC) 88 % of control and 100 % of control

OC(CC(O)(C(F)(F)F)C(F)(F)F)CC(O)(C(F)(F)F)C(F)(F)F
inactive: dose: 6.25 mg/kg/injection, schedule: Q01DX009 (ip), vehicle: saline with Tween-80 114 % of control | dose: 6.25 mg/kg/injection, schedule: Q04DX003 (ip), vehicle: saline 92 % of control | [5] 97 % of control | dose: 12.5 mg/kg/injection, schedule: Q04DX003 (ip), vehicle: saline 97 % of control | [6] 108 % of control | dose: 25.0 mg/kg/injection, schedule: Q04DX003 (ip), vehicle: saline 105 % of control

CC(=O)OC(C)C(=O)C(Cl)(Cl)Cl (stereo not drawn)
inactive: [2] 96 % of control | [7] 107 % of control | [3] 107 % of control

COc1cc2c(c(O)c1OC)-c1c(cc(OC)c(OC)c1OC)CC(C)C(C)C2 (stereo not drawn)
inactive: dose: 11.25 mg/kg/injection, schedule: Q01DX009 (ip), vehicle: saline + Tween-80 + alcohol 101 % of control | dose: 22.5 mg/kg/injection, schedule: Q01DX009 (ip), vehicle: saline + Tween-80 + alcohol 105 % of control | dose: 45.0 mg/kg/injection, schedule: Q01DX009 (ip), vehicle: saline + Tween-80 + alcohol 97 % of control | dose: 90.0 mg/kg/injection, schedule: Q01DX009 (ip), vehicle: saline + Tween-80 + alcohol 106 % of control

NC(N)=Nc1ccc(C(=O)Oc2ccc([N+](=O)[O-])cc2Cl)cc1
inactive: [5] 97 % of control | [6] 101 % of control | [8] 93 % of control

Nc1ccc(S(=O)(=O)Nc2cccc3ccccc23)cc1
inactive: [2] 100 % of control | [7] 100 % of control | [3] 96 % of control

O=C(CCc1ccc(O)cc1)c1c(O)cc(O)cc1O
inactive: dose: 50.0 mg/kg/injection, schedule: Q01DX009 (ip), vehicle: saline + alcohol 110 % of control | dose: 100.0 mg/kg/injection, schedule: Q01DX009 (ip), vehicle: saline + alcohol 102 % of control | dose: 400.0 mg/kg/injection, schedule: Q01DX009 (ip), vehicle: saline + alcohol 107 % of control

Cc1cccc(C)c1NC(=O)Nc1ccc(Cl)cc1
inactive: [2] 93 % of control | [7] 93 % of control | [3] 87 % of control

O=C1OC(COCC#Cc2ccccc2)CN1c1ccccc1 (stereo not drawn)
inactive: [9] 97 % of control | [1] 93 % of control | dose: 100.0 mg/kg/injection, schedule: Q04DX003 (ip), vehicle: saline with Tween-80 102 % of control | [7] 91 % of control | dose: 200.0 mg/kg/injection, schedule: Q04DX003 (ip), vehicle: saline with Tween-80 105 % of control | [3] 91 % of control | dose: 400.0 mg/kg/injection, schedule: Q04DX003 (ip), vehicle: saline with Tween-80 108 % of control

CC(N)CCC(C)(C)O (stereo not drawn)
inactive: [6] 102 % of control | [8] 105 % of control | dose: 100.0 mg/kg/injection, schedule: Q01DX009 (ip), vehicle: saline with Tween-80 107 % of control

COC(=O)c1ccccc1NC(c1ccccn1)c1ccc2cccnc2c1O (stereo not drawn)
inactive: [9] 94 % of control | [1] 108 % of control | [2] 98 % of control

COC(=O)[C@@H]1c2cc3c(c(O)c2[C@@H](OC2OC(C)C(OC)C(C)(OC)C2OC)C[C@]1(C)O)C(=O)c1c(O)cc2c(c1C3=O)O[C@H]1O[C@]2(C)[C@H](O)[C@@H](N(C)C)[C@@H]1O (stereo partly drawn)
active: dose: 250.0 micrograms/kg/injection, schedule: Q01DX009 (ip), vehicle: other 171 % of control | dose: 500.0 micrograms/kg/injection, schedule: Q01DX009 (ip), vehicle: other 171 % of control
inactive: dose: 648.0 micrograms/kg/injection, schedule: Q04DX003 (ip), vehicle: lactic acid 100 % of control | dose: 1080.0 micrograms/kg/injection, schedule: Q04DX003 (ip), vehicle: lactic acid 107 % of control and 121 % of control | dose: 1800.0 micrograms/kg/injection, schedule: Q04DX003 (ip), vehicle: lactic acid 110 % of control

COc1cccc2c1C(=O)c1c(O)c3c(c(O)c1C2=O)C[C@@](O)(/C(C)=N/NC(=O)c1ccccc1)C[C@@H]3OC1CC(N)C(O)C(C)O1 (stereo partly drawn)
inactive: dose: 0.5 mg/kg/injection, schedule: Q01DX009 (ip), vehicle: water 118 % of control
active: dose: 0.75 mg/kg/injection, schedule: Q01DX009 (ip), vehicle: saline 156 % of control | dose: 1.5 mg/kg/injection, schedule: Q01DX009 (ip), vehicle: saline 156 % of control and 167 % of control and 202 % of control | dose: 2.0 mg/kg/injection, schedule: Q01DX001 (ip), vehicle: water 158 % of control and 165 % of control | dose: 2.0 mg/kg/injection, schedule: Q01DX009 (ip), vehicle: water 181 % of control | dose: 3.0 mg/kg/injection, schedule: Q01DX009 (ip), vehicle: saline 186 % of control and 200 % of control and 226 % of control | dose: 3.0 mg/kg/injection, schedule: Q04DX003 (ip), vehicle: saline 165 % of control and 172 % of control | dose: 4.0 mg/kg/injection, schedule: Q01DX001 (ip), vehicle: water 161 % of control and 162 % of control and 202 % of control | dose: 4.0 mg/kg/injection, schedule: Q01DX009 (ip), vehicle: water 172 % of control | dose: 6.0 mg/kg/injection, schedule: Q01DX009 (ip), vehicle: saline 191 % of control and 202 % of control and 272 % of control | dose: 6.0 mg/kg/injection, schedule: Q04DX003 (ip), vehicle: saline 161 % of control and 193 % of control and 260 % of control | dose: 8.0 mg/kg/injection, schedule: Q01DX001 (ip), vehicle: water 186 % of control and 211 % of control and 275 % of control | dose: 8.0 mg/kg/injection, schedule: Q01DX009 (ip), vehicle: water 245 % of control | dose: 12.0 mg/kg/injection, schedule: Q04DX003 (ip), vehicle: saline 155 % of control and 215 % of control and 260 % of control | dose: 16.0 mg/kg/injection, schedule: Q01DX001 (ip), vehicle: water 178 % of control and 282 % of control and 287 % of control
